Reference: publication PMC6312923 (Life Science Alliance, 2018)

Experiments:
[1] = system: Cdt1 degradation in S/G2, U2OS cells; experiment: Cdt1-positive cells among cyclin A-positive U2OS cells; format: cell-based, human; conditions: siCdt2 and/or siSkp2
Method: Next, we examined Cdt1 degradation after the onset of the S phase in the Cdt2^PIP-3A-expressing cells. Cyclin A is present in the S and G2 phase, when Cdt1 should be degraded. Thus, Cdt1 should be present in cells that are negative for cyclin A, and absent in cells that are positive for cyclin A ([Nishitani et al, 2006]; [Xouri et al., 2007a], [2007b]). Cdt1 degradation after the onset of the S phase is carried out by two ubiquitin ligases, CRL1^Skp2 and CRL4^Cdt2. We depleted the substrate recognition subunits, Cdt2 and/or Skp2, by siRNA, and the percentage of Cdt1 positive cells among cyclin A–positive cells was assessed by immunofluorescence. […]
Figure 8. […] The frequency of Cdt1-positive (+) cells among cyclin A–positive (+) cells was calculated (n = 3). […] (D) Cells treated with siCdt2 or control siLuc were measured for their nuclear size (n = 200 for each), and are shown in a scatter plot. […]
For Western blotting, whole-cell lysates were prepared by lysing cell pellets directly in SDS–PAGE buffer. […] Protein levels were analysed by ImageJ software.
Double-stranded RNAs were transfected at 100 nM using Oligofectamine (Invitrogen) or HiPerFect (QIAGEN). […] For Cdt1 silencing in Fig 1A and B, unsychronized HeLa cells were transfected twice with 200 nM of Cdt1 siRNA or control luciferase siRNA using Lipofectamine 2000 with a time interval of 24 h and were analysed 48 h after the second transfection. […]

[2] = system: Cdt1 poly-ubiquitination; experiment: Poly-ubiquitination of Cdt1 in HEK293 cells; format: cell-based, human; conditions: for poly-ubiquitinated Cdt1 level: HEK293, MG132 3 h, asynchronous; for poly-ubiquitination of Cdt1 after UV: HEK293, endogenous Cdt2 depleted (siCdt2), MG132 25 μM, UV 20 J/m^2
Method: Figure 6. The Cdt2 PIP box is important for its recruitment to DNA damage sites and replication foci and for poly-ubiquitination activity. (A) HEK293 and stable Cdt2^WT or Cdt2^PIP-3A cells were locally UV irradiated, and stained for XPA and FLAG (Cdt2). XPA-positive spots were examined for FLAG signal, and its frequency was counted (%). More than 50 spots were examined. bar:10 μm. […] Bar: 10 μm. […] (D) Whole-cell extracts were prepared from HEK293 and stably transfected cells of Cdt2^WT or Cdt2^PIP-3A cells, separated into soluble (Sup) and chromatin-containing insoluble (Ppt) fractions, and were examined for indicated proteins. The asterisk indicates nonspecific bands. (E) HEK293 and stably transfected cells of Cdt2^WT or Cdt2^PIP-3A were treated with MG132 for 3 h. Whole-cell extracts (WCE) were prepared, separated into soluble (Sup) and insoluble (Ppt) fractions, and blotted with the indicated antibodies.
Figure S6. Cdt2 PIP box is important for its recruiting to DNA replication sites and its poly-ubiquitination activity in HEK293 cells. […] (B) Poly-ubiquitination after UV irradiation. HEK293 and its stables expressing Cdt2^WT or Cdt2^PIP-3A were transfected with siCdt2 or control (siLuc). Three days later, cells were treated with MG132 (25 μM), and 10 min later irradiated with UV (20 J/m^2). Cells were collected at the indicated time points, and used for Western blotting with indicated antibodies.
To consider this possibility, asynchronously growing control HEK293 cells and cells expressing Cdt2^WT or Cdt2^PIP-3A were treated with proteasome inhibitor MG132 and the levels of poly-ubiquitinated Cdt1 were examined. […] Cdt2^PIP-3A-expressing cells however had reduced level of both poly-ubiquitinated Cdt1 and p21 on chromatin.
Next, we examined the accumulation of poly-ubiquitinated Cdt1 after UV irradiation. For this experiment, the endogenous Cdt2 was depleted with an siRNA targeted to the 3′ UTR to assay for the activity of introduced Cdt2. Cells were treated with MG132, irradiated with UV and the levels of poly-ubiquitinated Cdt1 were monitored by Western blotting. In HEK293 cells treated with control siRNA, poly-ubiquitinated Cdt1 was detected 15 min after irradiation (Fig S6B). […] The defect was rescued by Cdt2^WT expression.

Row | Molecule | rescue of Cdt1 degradation in cell cycle [1] | poly-ubiquitinated Cdt1 level [2] | poly-ubiquitination of Cdt1 after UV [2]
1 | Cdt2: Cdt2 tagged with GFP, transiently expressed in MCF7 cells | fully complemented the depletion of Cdt2, and also the co-depletion of Skp2 | clearly detected | rescued
2 | Cdt2^PIP-3A: Cdt2 with I709, Y712, and F713 all mutated to alanine (protein, UniProt Q9NZJ0 1-730, looked up, variant I709A Y712A F713A, FLAG tag, Cdt2 with I709, Y712, and F713 all mutated to alanine) Denticleless protein homolog: MLFNSVLRQPQLGVLRNGWSSQYPLQSLLTGYQCSGNDEHTSYGETGVPVPPFGCTFSSAPNMEHVLAVANEEGFVRLYNTESQSFRKKCFKEWMAHWNAVFDLAWVPGELKLVTAAGDQTAKFWDVKAGELIGTCKGHQCSLKSVAFSKFEKAVFCTGGRDGNIMVWDTRCNKKDGFYRQVNQISGAHNTSDKQTPSKPKKKQNSKGLAPSVDFQQSVTVVLFQDENTLVSAGAVDGIIKVWDLRKNYTAYRQEPIASKSFLYPGSSTRKLGYSSLILDSTGSTLFANCTDDNIYMFNMTGLKTSPVAIFNGHQNSTFYVKSSLSPDDQFLVSGSSDEAAYIWKVSTPWQPPTVLLGHSQEVTSVCWCPSDFTKIATCSDDNTLKIWRLNRGLEEKPGGDKLSTVGWASQKKKESRPGLVTVTSSQSTPAKAPRAKCNPSNSSPSSAACAPSCAGDLPLPSNTPTFSIKTSPAKARSPINRRGSVSSVSPKPPSSFKMSIRNWVTRTPSSSPPITPPASETKIMSPRKALIPVSQKSSQAEACSESRNRVKRRLDSSCLESVKQKCVKSCNCVTELDGQVENLHLDLCCLAGNQEDLSKDSLGPTKSSKIEGAGTSISEPPSPISPYASESCGTLPLPLRPCGEGSEMVGKENSSPENKNWLLAMAAKRKAENPSPRSPSSQTPNSRRQSGKKLPSPVTITPSSMRKACTAAHRKSQEDFCGPEHSTEL | not fully rescued | reduced | defective in poly-ubiquitination of Cdt1
